According to US7820630B2, “Substituted indole-O-glucosides” (Janssen Pharmaceutica NV, priority 2003, dated 2010):

What was measured:
human SGLT2 = target: T1, human SGLT2 (Homo sapiens, UniProt P31639); test: Cell-based assay for sodium-dependent glucose transport (14C-AMG uptake), CHOK-SGLT2; conditions: CHO-K1 cells stably expressing human SGLT2; for IC50: Na-dependent 14C-AMG uptake
T1 construct: expressed in transfected cells
T1 sequence (P31639 1-672): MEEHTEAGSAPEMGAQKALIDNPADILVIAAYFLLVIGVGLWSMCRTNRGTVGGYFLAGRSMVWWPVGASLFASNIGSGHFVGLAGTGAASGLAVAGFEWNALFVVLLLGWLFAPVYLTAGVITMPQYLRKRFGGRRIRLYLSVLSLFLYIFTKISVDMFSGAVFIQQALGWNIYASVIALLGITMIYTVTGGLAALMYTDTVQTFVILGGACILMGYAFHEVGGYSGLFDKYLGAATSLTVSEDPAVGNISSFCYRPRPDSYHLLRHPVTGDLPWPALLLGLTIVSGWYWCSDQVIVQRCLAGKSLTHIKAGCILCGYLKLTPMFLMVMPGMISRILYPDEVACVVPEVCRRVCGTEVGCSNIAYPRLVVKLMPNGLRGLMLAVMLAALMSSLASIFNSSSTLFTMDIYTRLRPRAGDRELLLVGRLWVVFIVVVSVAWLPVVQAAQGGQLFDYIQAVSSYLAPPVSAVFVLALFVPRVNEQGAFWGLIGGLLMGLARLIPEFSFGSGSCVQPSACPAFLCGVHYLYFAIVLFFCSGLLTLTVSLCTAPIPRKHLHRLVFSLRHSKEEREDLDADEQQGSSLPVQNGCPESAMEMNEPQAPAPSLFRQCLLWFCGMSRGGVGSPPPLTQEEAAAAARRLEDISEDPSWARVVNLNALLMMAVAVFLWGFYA
Procedure: (§1) Cloning of the human SGLT1 and human SGLT2 cDNAs and construction of the mammalian expression vector: The human SGLT1 cDNA (Genbank M24847) was cloned from human small intestine. Human SGLT2 cDNA (Genbank M95549) was cloned from human kidney. Both full cDNAs were subcloned into pcDNA and sequenced to verify the integrity of the construct.
(§2) Generation of CHO-K1 cells stably expressing human SGLT1 or human SGLT2: Transfection of CHO-K1 cells was performed using DMRIE-C reagent (Life Technologies, Gaithersburg, Md.). Transfectants were then selected in the presence of the antibiotic G418 (Gibco-BRL, Grand Island, N.Y.) at 400 μg/ml. Individual clones were then characterized using the functional assay described below.
(§3) Cell-based assay for sodium-dependent glucose transport: Cell lines stably expressing human SGLT1 or SGLT2 were then used for functional analysis of Na+-dependent glucose uptake. Briefly, cells were plated at a density of 65,000 cells per well in a 96-well plate and allowed to grow for 48 hours. Cells were subsequently washed one time with Assay Buffer (50 mM HEPES pH […], 5 mM KCl, 1 mM MgCl2, 1 mM CaCl2 and 137 mM NaCl) and treated with compound in the absence or presence of NaCl for 15 minutes. Cells were then labeled with ^14C-α-methylglucopyranoside (AMG, Sigma, St. Louis, Mo.), a non-metabolizable glucose analog specific for sodium-dependent glucose transporters as previously described (Peng, H. and Lever J. E. Post-transcriptional regulation of Na^+/glucose cotransporter (SGLT1) gene expression in LLC-PK1 cells. J Biol Chem 1995; 270:20536-20542.). After 2 hours the labeled cells were washed three times with ice-cold PBS. After aspiration, cells were solubilized using Microscint 20 (Packard, Meriden, Conn.) and Na-dependent ^14C-AMG uptake was quantified by measuring radioactivity. Plates were counted in a TopCount (Packard, Meriden, Conn.). Results are reported as the % inhibition or IC50 value from a representative experiment. Variability for the functional assay was typically within 20%.

human SGLT1 = target: T2, human SGLT1 (Homo sapiens, UniProt P13866); test: Cell-based assay for sodium-dependent glucose transport (14C-AMG uptake), CHOK-SGLT1; conditions: CHO-K1 cells stably expressing human SGLT1; for IC50: Na-dependent 14C-AMG uptake; for inhibition at 10 µM: 10 μM compound, read-out: CHOK-SGLT1 % Inh. @ 10 μM
T2 construct: expressed in transfected cells
T2 sequence (P13866 1-664): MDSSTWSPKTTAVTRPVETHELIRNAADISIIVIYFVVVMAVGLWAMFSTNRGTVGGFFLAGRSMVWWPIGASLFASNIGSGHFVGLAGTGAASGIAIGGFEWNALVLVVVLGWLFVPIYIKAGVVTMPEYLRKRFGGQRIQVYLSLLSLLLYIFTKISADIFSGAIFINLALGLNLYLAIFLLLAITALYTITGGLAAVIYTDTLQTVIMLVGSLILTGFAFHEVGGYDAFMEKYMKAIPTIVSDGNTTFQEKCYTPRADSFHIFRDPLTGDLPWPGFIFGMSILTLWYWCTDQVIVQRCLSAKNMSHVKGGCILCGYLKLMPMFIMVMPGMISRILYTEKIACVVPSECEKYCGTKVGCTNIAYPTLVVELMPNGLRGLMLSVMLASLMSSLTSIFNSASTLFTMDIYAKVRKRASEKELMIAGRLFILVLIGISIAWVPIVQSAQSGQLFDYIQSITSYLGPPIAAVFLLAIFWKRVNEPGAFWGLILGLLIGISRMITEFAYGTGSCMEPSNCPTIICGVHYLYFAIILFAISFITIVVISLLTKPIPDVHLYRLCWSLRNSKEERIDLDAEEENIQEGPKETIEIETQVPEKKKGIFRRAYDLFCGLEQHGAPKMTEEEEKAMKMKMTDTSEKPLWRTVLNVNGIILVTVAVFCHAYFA
Procedure: as §1, §2, §3

| Compound | IC50 (human SGLT2) [nM] | inhibition at 10 µM (human SGLT1) [%] | also measured |
| --- | --- | --- | --- |
| Cc1ccc(Cc2c[nH]c3cccc(O[C@@H]4O[C@H](CO)[C@@H](O)[C@H](O)[C@H]4O)c23)cc1F [Example 16, 2-[3-(3-Fluoro-4-methyl-benzyl)-1H-indol-4-yloxy]-β-D-glucopyranoside] | 67 |  | inhibition at 3 µM (human SGLT1; 3 μM compound, read-out: CHOK-SGLT1 % Inh. @ 3 μM): 42% |
| COc1ccc(CCc2c[nH]c3cc(C)cc(O[C@@H]4O[C@H](CO)[C@@H](O)[C@H](O)[C@H]4O)c23)cc1 [Example 10, 2-{3-[2-(4-Methoxy-phenyl)-ethyl]-6-methyl-1H-indol-4-yloxy}-β-D-glucopyranoside] | 376 |  | IC50 (human SGLT1): 2730 nM |
| OC[C@H]1O[C@@H](Oc2cccc3[nH]cc(Cc4ccc(-c5cccnc5)cc4)c23)[C@H](O)[C@@H](O)[C@@H]1O [Example 35, 2-[3-(4-Pyridin-3-yl-benzyl)-1H-indol-4-yloxy]-β-D-glucopyranoside] | 133 |  | IC50 (human SGLT1): 1120 nM |
| OC[C@H]1O[C@@H](Oc2cccc3[nH]cc(Cc4ccc(-c5ccccc5)cc4)c23)[C@H](O)[C@@H](O)[C@@H]1O [Example 19, 2-(3-Biphenyl-4-ylmethyl-1H-indol-4-yloxy)-β-D-glucopyranoside] | 101 | 63 |  |
| OC[C@H]1O[C@@H](Oc2cccc3[nH]cc(Cc4ccc(-c5ccsc5)cc4)c23)[C@H](O)[C@@H](O)[C@@H]1O [Example 37, 2-[3-(4-Thiophen-3-yl-benzyl)-1H-indol-4-yloxy]-β-D-glucopyranoside] | 34 |  | IC50 (human SGLT1): 1890 nM |
| COc1ccc(Cc2c[nH]c3cccc(O[C@@H]4O[C@H](CO)[C@@H](O)[C@H](O)[C@H]4O)c23)cc1F [Example 24, 2-[3-(3-Fluoro-4-methoxy-benzyl)-1H-indol-4-yloxy]-D-glucopyranoside] | 202 | 79 |  |
| COc1ccc(Cc2cn(C)c3cccc(O[C@@H]4O[C@H](CO)[C@@H](O)[C@H](O)[C@H]4O)c23)cc1 [Example 23, 2-[3-(4-Methoxy-benzyl)-1-methyl-1H-indol-4-yloxy]-β-D-glucopyranoside] | 1220 | 69 |  |
| COc1ccc(-c2c[nH]c3cccc(O[C@@H]4O[C@H](CO)[C@@H](O)[C@H](O)[C@H]4O)c23)cc1 [Example 33, 2-[3-(4-Methoxy-phenyl)-1H-indol-4-yloxy]-β-D-glucopyranoside] |  |  | inhibition at 10 µM (human SGLT2; 10 μM compound, read-out: CHOK-SGLT2 % Inh. @ 10 μM): 37% |
| CCCc1ccc(Cc2c[nH]c3cccc(O[C@@H]4O[C@H](CO)[C@@H](O)[C@H](O)[C@H]4O)c23)cc1 [Example 17, 2-[3-(4-propyl-benzyl)-1H-indol-4-yloxy]-β-D-glucopyranoside] | 49 |  |  |
| CCOc1ccc(Cc2c[nH]c3cccc(O[C@@H]4O[C@H](CO)[C@@H](O)[C@H](O)[C@H]4O)c23)cc1 [Example 25, 2-[3-(4-Ethoxy-benzyl)-1H-indol-4-yloxy]-β-D-glucopyranoside] | 100 | 49 |  |
| OC[C@H]1O[C@@H](Oc2cccc3[nH]cc(CCc4ccc5ccccc5c4)c23)[C@H](O)[C@@H](O)[C@@H]1O [Example 6, 2-[3-(2-Naphthalen-2-yl-ethyl)-1H-indol-4-yloxy]-β-D-glucopyranoside] | 149 |  |  |
| COc1ccc(Cc2c[nH]c3cccc(O[C@@H]4O[C@H](CO)[C@@H](O)[C@H](O)[C@H]4O)c23)cc1 [Example 22, 2-[3-(4-Methoxy-benzyl)-1H-indol-4-yloxy]-β-D-glucopyranoside] | 118 |  | IC50 (human SGLT1): 1120 nM |
| CCCCCC(=O)OC[C@H]1O[C@@H](Oc2cccc3[nH]cc(Cc4ccc(CC)cc4)c23)[C@H](O)[C@@H](O)[C@@H]1O [Example 14, 2-[3-(4-Ethyl-benzyl)-1H-indol-4-yloxy]-6-O-hexanoyl-β-D-glucopyranoside] | 206 | 71 |  |
| OC[C@H]1O[C@@H](Oc2cccc3[nH]cc(CCc4ccc5c(c4)OCO5)c23)[C@H](O)[C@@H](O)[C@@H]1O [Example 4, 2-[3-(2-Benzo[1,3]dioxol-5-yl-ethyl)-1H-indol-4-yloxy] β-D-glucopyranoside] | 98 |  | IC50 (human SGLT1): 823 nM |
| CCc1ccc(Cc2c[nH]c3cccc(O[C@@H]4O[C@H](COC(=O)OC)[C@@H](O)[C@H](O)[C@H]4O)c23)cc1 [Example 12, 2-[3-(4-Ethyl-benzyl)-1H-indol-4-yloxy]-6-O-methoxycarbonyl-β-D-glucopyranoside] | 660 |  |  |
| CCc1ccc(Cc2cn(C(C)C)c3cccc(O[C@@H]4O[C@H](CO)[C@@H](O)[C@H](O)[C@H]4O)c23)cc1 [Example 31, 2-[3-(4-Ethyl-benzyl)-1-isopropyl-1H-indol-4-yloxy]-β-D-glucopyranoside] | 5110 |  |  |
| CCc1ccc(CCc2c[nH]c3cccc(O[C@@H]4O[C@H](CO)[C@@H](O)[C@H](O)[C@H]4O)c23)cc1 [Example 9, 2-{3-[2-(4-Ethyl-phenyl)-ethyl]-1H-indol-4-yloxy}-β-D-glucopyranoside] |  | 46 | inhibition at 1 µM (human SGLT2; 1 μM compound, read-out: CHOK-SGLT2 % Inh. @ 1 μM): 50% |
| Cc1ccsc1Cc1c[nH]c2cccc(O[C@@H]3O[C@H](CO)[C@@H](O)[C@H](O)[C@H]3O)c12 [Example 34] | 5040 | 27 |  |
| OC[C@H]1O[C@@H](Oc2cccc3[nH]cc(Cc4ccc5c(c4)CCO5)c23)[C@H](O)[C@@H](O)[C@@H]1O [Example 30, 2-[3-(2,3-Dihydro-benzofuran-5-ylmethyl)-1H-indol-4-yloxy]-β-D-glucopyranoside] | 1870 | 30 |  |
| CCc1ccc(Cc2c[nH]c3cccc(O[C@@H]4O[C@H](CO)[C@@H](O)[C@H](O)[C@H]4O)c23)cc1 [Example 11, 2-[3-(4-Ethyl-benzyl)-1H-indol-4-yloxy]-β-D-glucopyranoside] | 24 |  | IC50 (human SGLT1): 1810 nM |
| OC[C@H]1O[C@@H](Oc2cccc3[nH]cc(Cc4ccc(Oc5ccccc5)cc4)c23)[C@H](O)[C@@H](O)[C@@H]1O [Example 26, 2-[3-(4-Phenoxy-benzyl)-1H-indol-4-yloxy]-β-D-glucopyranoside] | 420 |  |  |
| CCOC(=O)OC[C@H]1O[C@@H](Oc2cccc3[nH]cc(Cc4ccc(CC)cc4)c23)[C@H](O)[C@@H](O)[C@@H]1O [Example 13, 2-[3-(4-Ethyl-benzyl)-1H-indol-4-yloxy]-6-O-ethoxycarbonyl-β-D-glucopyranoside] | 650 |  |  |
